Test results: US10745356B2, “Compositions and methods for treating tuberculosis” (priority 2015, dated 2020)
Converted amounts (≈) assume the structure as drawn.

The compounds below were run on M. tuberculosis strains (assay: Minimum Inhibitory Concentration (MIC) against M. tuberculosis strains, resazurin microtiter plate assay). Conditions: Mycobacterium tuberculosis.
Assay type: cell-based, Mycobacterium tuberculosis

SMILES	MIC90 [µM]
Cc1cc2nc(C(=O)NCCF)cc(-c3ccccc3Cl)c2c(C)c1-c1ccncc1 [Compound 31]	1.25 (≈ 0.542 µg/mL)
Cc1cc2nccc(-c3ccccc3)c2c(C)c1-c1ccc(CN2CCOCC2)cc1 [Compound 47]	0.45 (≈ 0.184 µg/mL)
Cc1cc2nccc(-c3ccccc3Cl)c2c(C)c1-c1ccc(CN2CCOCC2)cc1 [Compound 48]	0.3 (≈ 0.133 µg/mL)
Cc1cc2nccc(-c3cccc(Cl)c3)c2c(C)c1-c1ccc(CN2CCOCC2)cc1 [Compound 49]	0.6 (≈ 0.266 µg/mL)
Cc1cc2nccc(-c3ccc(Cl)cc3)c2c(C)c1-c1ccc(CN2CCOCC2)cc1 [Compound 50]	80 (≈ 35.4 µg/mL)
COc1cccc(-c2ccnc3cc(C)c(-c4ccc(CN5CCOCC5)cc4)c(C)c23)c1OC [Compound 51]	> 40
Cc1cc2nccc(-c3ccccc3C(=O)O)c2c(C)c1-c1ccc(CN2CCOCC2)cc1 [Compound 57]	40 (≈ 18.1 µg/mL)
Cc1cccc(C)c1-c1ccnc2cc(C)c(-c3ccc(CN4CCOCC4)cc3)c(C)c12 [Compound 58]	5 (≈ 2.18 µg/mL)
Cc1cc2nccc(-c3cccnc3C#N)c2c(C)c1-c1ccc(CN2CCOCC2)cc1 [Compound 62]	7.5 (≈ 3.26 µg/mL)
Cc1cc2nccc(-c3ccnn3C)c2c(C)c1-c1ccc(CN2CCOCC2)cc1 [Compound 63]	2.2 (≈ 0.908 µg/mL)
CNC(=O)c1cc(-c2cccc(Cl)c2)c2c(C)c(-c3ccncc3)c(C)cc2n1 [Compound 66]	2.5 (≈ 1 µg/mL)
CNC(=O)c1cc(-c2ccc(Cl)cc2)c2c(C)c(-c3ccncc3)c(C)cc2n1 [Compound 67]	40 (≈ 16.1 µg/mL)
CNC(=O)c1cc(N2CCCCC2)c2c(C)c(-c3ccncc3)c(C)cc2n1 [Compound 69]	5 (≈ 1.87 µg/mL)

Same assay, conditions: Mycobacterium tuberculosis, Table 1, C2 SAR with chlorophenyl; Middlebrook 7H9, 37° C. six days, resazurin fluorescence after 48 hours; read-out: MIC90

SMILES	MIC90 [µM]
Cc1cc2nccc(-c3ccccc3Cl)c2c(C)c1-c1ccncc1 [Compound 1]	5 (≈ 1.72 µg/mL)
Cc1cc2nc(CO)cc(-c3ccccc3Cl)c2c(C)c1-c1ccncc1 [Compound 3]	3.75 (≈ 1.41 µg/mL)
Cc1cc2nc(C(C)(C)O)cc(-c3ccccc3Cl)c2c(C)c1-c1ccncc1 [Compound 4]	> 40
Cc1cc2nc(CN(C)C)cc(-c3ccccc3Cl)c2c(C)c1-c1ccncc1 [Compound 5]	10 (≈ 4.02 µg/mL)
Cc1cc2nc(CNCCO)cc(-c3ccccc3Cl)c2c(C)c1-c1ccncc1 [Compound 6]	5 (≈ 2.09 µg/mL)
Cc1cc2nc(N)cc(-c3ccccc3Cl)c2c(C)c1-c1ccncc1 [Compound 7]	10 (≈ 3.6 µg/mL)
CNc1cc(-c2ccccc2Cl)c2c(C)c(-c3ccncc3)c(C)cc2n1 [Compound 8]	6 (≈ 2.24 µg/mL)
Cc1cc2nc(NCCO)cc(-c3ccccc3Cl)c2c(C)c1-c1ccncc1 [Compound 9]	3 (≈ 1.21 µg/mL)
Cc1cc2nc(CCC(=O)N(C)C)cc(-c3ccccc3Cl)c2c(C)c1-c1ccncc1 [Compound 10]	20 (≈ 8.88 µg/mL)
CNS(=O)(=O)c1cc(-c2ccccc2Cl)c2c(C)c(-c3ccncc3)c(C)cc2n1 [Compound 11]	10 (≈ 4.38 µg/mL)
Cc1cc2nc(C(N)=O)cc(-c3ccccc3Cl)c2c(C)c1-c1ccncc1 [Compound 12]	1.25 (≈ 0.485 µg/mL)
CNC(=O)c1cc(-c2ccccc2Cl)c2c(C)c(-c3ccncc3)c(C)cc2n1 [Compound 13]	0.8 (≈ 0.322 µg/mL)
Cc1cc2nc(C(=O)NC3CC3)cc(-c3ccccc3Cl)c2c(C)c1-c1ccncc1 [Compound 14]	1.9 (≈ 0.813 µg/mL)
Cc1cc2nc(C(=O)NCCO)cc(-c3ccccc3Cl)c2c(C)c1-c1ccncc1 [Compound 15]	0.3 (≈ 0.13 µg/mL)
Cc1cc2nc(C(=O)NCCN(C)C)cc(-c3ccccc3Cl)c2c(C)c1-c1ccncc1 [Compound 16]	0.3 (≈ 0.138 µg/mL)
Cc1cc2nc(C(=O)NO)cc(-c3ccccc3Cl)c2c(C)c1-c1ccncc1 [Compound 17]	10 (≈ 4.04 µg/mL)

SMILES	MIC90 [µM]
Cc1cc2nc(C(=O)N3CCCC3)cc(-c3ccccc3Cl)c2c(C)c1-c1ccncc1 [Compound 19]	2.5 (≈ 1.1 µg/mL)
Cc1cc2nc(C(=O)NS(=O)(=O)C3CC3)cc(-c3ccccc3Cl)c2c(C)c1-c1ccncc1 [Compound 20]	2.5 (≈ 1.23 µg/mL)
Cc1cc2nc(C(=O)NCC3CCCS(=O)(=O)C3)cc(-c3ccccc3Cl)c2c(C)c1-c1ccncc1 (centres unmarked) [Compound 21]	0.8 (≈ 0.427 µg/mL)
Cc1cc2nc(C(=O)NCC(O)CO)cc(-c3ccccc3Cl)c2c(C)c1-c1ccncc1 (centres unmarked) [Compound 22]	0.4 (≈ 0.185 µg/mL)
Cc1cc2nc(C(=O)N[C@H]3CCCC[C@@H]3O)cc(-c3ccccc3Cl)c2c(C)c1-c1ccncc1 [Compound 23]	1.25 (≈ 0.608 µg/mL)
Cc1cc2nc(C(=O)N[C@H]3CCC[C@@H]3O)cc(-c3ccccc3Cl)c2c(C)c1-c1ccncc1 [Compound 24]	0.6 (≈ 0.283 µg/mL)
Cc1cc2nc(C(=O)NC3CCN(C)C3)cc(-c3ccccc3Cl)c2c(C)c1-c1ccncc1 (centres unmarked) [Compound 25]	1.25 (≈ 0.589 µg/mL)
Cc1cc2nc(C(=O)NC(C)CCO)cc(-c3ccccc3Cl)c2c(C)c1-c1ccncc1 (centres unmarked) [Compound 26]	1.25 (≈ 0.575 µg/mL)
Cc1cc2nc(C(=O)NCC(N)=O)cc(-c3ccccc3Cl)c2c(C)c1-c1ccncc1 [Compound 27]	0.8 (≈ 0.356 µg/mL)
Cc1cc2nc(C(=O)NCC(C)(C)C(=O)O)cc(-c3ccccc3Cl)c2c(C)c1-c1ccncc1 [Compound 28]	80 (≈ 39 µg/mL)
Cc1cc2nc(C(=O)N(C)C)cc(-c3ccccc3Cl)c2c(C)c1-c1ccncc1 [Compound 29]	20 (≈ 8.32 µg/mL)
Cc1cc2nc(C(=O)N3CCNCC3)cc(-c3ccccc3Cl)c2c(C)c1-c1ccncc1 [Compound 30]	10 (≈ 4.57 µg/mL)
Cc1cc2nc(C(=O)N3CCOCC3)cc(-c3ccccc3Cl)c2c(C)c1-c1ccncc1 [Compound 32]	15 (≈ 6.87 µg/mL)
Cc1cc2nc(C(=O)NC3CCN(C)CC3)cc(-c3ccccc3Cl)c2c(C)c1-c1ccncc1 [Compound 33]	0.8 (≈ 0.388 µg/mL)
Cc1cc2nc(C(=O)NC(CO)CO)cc(-c3ccccc3Cl)c2c(C)c1-c1ccncc1 [Compound 34]	1.9 (≈ 0.878 µg/mL)
Cc1cc2nc(C(=O)NCC(C)(C)CO)cc(-c3ccccc3Cl)c2c(C)c1-c1ccncc1 [Compound 35]	1.6 (≈ 0.758 µg/mL)

Same assay, conditions: Mycobacterium tuberculosis, Table 1A, C2 SAR with fluorophenyl; Middlebrook 7H9, 37° C. six days, resazurin fluorescence after 48 hours; read-out: MIC90

SMILES	MIC90 [µM]
Cc1cc2nccc(-c3ccccc3F)c2c(C)c1-c1ccncc1 [Compound 36]	5 (≈ 1.64 µg/mL)
CNC(=O)c1cc(-c2ccccc2F)c2c(C)c(-c3ccncc3)c(C)cc2n1 [Compound 37]	1.25 (≈ 0.482 µg/mL)
Cc1cc2nc(C(=O)NCCO)cc(-c3ccccc3F)c2c(C)c1-c1ccncc1 [Compound 38]	1.6 (≈ 0.665 µg/mL)
Cc1cc2nc(C(=O)N[C@H](C)CO)cc(-c3ccccc3F)c2c(C)c1-c1ccncc1 [Compound 39]	0.6 (≈ 0.258 µg/mL)
Cc1cc2nc(C(=O)N[C@@H](C)CO)cc(-c3ccccc3F)c2c(C)c1-c1ccncc1 [Compound 40]	0.3 (≈ 0.129 µg/mL)
Cc1cc2nc(C(=O)N[C@H](C)CCO)cc(-c3ccccc3F)c2c(C)c1-c1ccncc1 [Compound 41]	0.16 (≈ 0.071 µg/mL)
Cc1cc2nc(C(=O)N[C@@H](C)CCO)cc(-c3ccccc3F)c2c(C)c1-c1ccncc1 [Compound 42]	0.16 (≈ 0.071 µg/mL)
Cc1cc2nc(C(=O)NC[C@H](O)CO)cc(-c3ccccc3F)c2c(C)c1-c1ccncc1 [Compound 43]	0.8 (≈ 0.356 µg/mL)
Cc1cc2nc(C(=O)NC[C@@H](O)CO)cc(-c3ccccc3F)c2c(C)c1-c1ccncc1 [Compound 44]	0.6 (≈ 0.267 µg/mL)
Cc1cc2nc(C(=O)NC3CCN(C)C3)cc(-c3ccccc3F)c2c(C)c1-c1ccncc1 (centres unmarked) [Compound 45]	1.25 (≈ 0.568 µg/mL)
Cc1cc2nc(C(=O)NC3CCN(C)CC3)cc(-c3ccccc3F)c2c(C)c1-c1ccncc1 [Compound 46]	1.25 (≈ 0.586 µg/mL)

Same assay, conditions: Mycobacterium tuberculosis, Table 2, C4 SAR; Middlebrook 7H9, 37° C. six days, resazurin fluorescence after 48 hours; read-out: MIC90

SMILES	MIC90 [µM]
Cc1cc2nccc(-c3ccccc3C#N)c2c(C)c1-c1ccc(CN2CCOCC2)cc1 [Compound 52]	2.5 (≈ 1.08 µg/mL)
COc1cccc(-c2ccnc3cc(C)c(-c4ccc(CN5CCOCC5)cc4)c(C)c23)c1Cl [Compound 53]	10 (≈ 4.73 µg/mL)
CCN(CC)Cc1ccccc1-c1ccnc2cc(C)c(-c3ccc(CN4CCOCC4)cc3)c(C)c12 [Compound 54]	2.5 (≈ 1.23 µg/mL)
Cc1cc2nccc(-c3ccccc3CO)c2c(C)c1-c1ccc(CN2CCOCC2)cc1 [Compound 55]	2.5 (≈ 1.1 µg/mL)
Cc1cc2nccc(-c3ccccc3C(N)=O)c2c(C)c1-c1ccc(CN2CCOCC2)cc1 [Compound 56]	20 (≈ 9.03 µg/mL)
COc1ccncc1-c1ccnc2cc(C)c(-c3ccc(CN4CCOCC4)cc3)c(C)c12 [Compound 59]	2.5 (≈ 1.1 µg/mL)
COc1ncccc1-c1ccnc2cc(C)c(-c3ccc(CN4CCOCC4)cc3)c(C)c12 [Compound 60]	2.5 (≈ 1.1 µg/mL)
Cc1cc(-c2ccnc3cc(C)c(-c4ccc(CN5CCOCC5)cc4)c(C)c23)n(C)n1 [Compound 61]	> 40
Cc1cc2nccc(-c3cncnc3)c2c(C)c1-c1ccc(CN2CCOCC2)cc1 [Compound 64]	2.5 (≈ 1.03 µg/mL)
Cc1cc2nccc(-c3cncnc3C)c2c(C)c1-c1ccc(CN2CCOCC2)cc1 [Compound 65]	5 (≈ 2.12 µg/mL)

Same assay, conditions: Mycobacterium tuberculosis, Table 3, C4 SAR; Middlebrook 7H9, 37° C. six days, resazurin fluorescence after 48 hours; read-out: MIC90

SMILES	MIC90 [µM]
CNC(=O)c1cc(-c2ccccc2Cl)c2c(C)c(-c3ccncc3)c(C)cc2n1 [Compound 13]	0.8 (≈ 0.322 µg/mL)
CNC(=O)c1cc(-c2ccccc2F)c2c(C)c(-c3ccncc3)c(C)cc2n1 [Compound 37]	0.6 (≈ 0.231 µg/mL)
CNC(=O)c1cc(-c2cncnc2)c2c(C)c(-c3ccncc3)c(C)cc2n1 [Compound 68]	10 (≈ 3.69 µg/mL)
CNC(=O)c1cc(N2CCOCC2)c2c(C)c(-c3ccncc3)c(C)cc2n1 [Compound 70]	20 (≈ 7.53 µg/mL)
CNC(=O)c1cc(N2CCCC2)c2c(C)c(-c3ccncc3)c(C)cc2n1 [Compound 71]	> 50

Same assay, conditions: Mycobacterium tuberculosis, Table 4, C6 SAR; Middlebrook 7H9, 37° C. six days, resazurin fluorescence after 48 hours; read-out: MIC90

SMILES	MIC90 [µM]
Cc1cc2nccc(-c3ccccc3)c2c(C)c1-c1ccncc1 [Compound 72]	5 (≈ 1.55 µg/mL)
Cc1cc2nccc(-c3ccccc3)c2c(C)c1-c1cncnc1 [Compound 73]	40 (≈ 12.5 µg/mL)
Cc1cc2nccc(-c3ccccc3)c2c(C)c1-c1cnco1 [Compound 74]	31 (≈ 9.31 µg/mL)

Same assay, conditions: Mycobacterium tuberculosis, Table 4A, C6 SAR with amide; Middlebrook 7H9, 37° C. six days, resazurin fluorescence after 48 hours; read-out: MIC90

SMILES	MIC90 [µM]
CNC(=O)c1cc(-c2ccccc2F)c2c(C)c(-c3ccncc3)c(C)cc2n1 [Compound 37]	1.25 (≈ 0.482 µg/mL)

Same assay, conditions: Mycobacterium tuberculosis, Table 6; Middlebrook 7H9, 37° C. six days, resazurin fluorescence after 48 hours; read-out: MIC90

SMILES	MIC90 [µM]
Cc1cc2nc(C(=O)N[C@@H]3CNC[C@@H]3F)cc(-c3ccnn3C)c2c(C)c1-c1ccncc1 (racemic) [Compound 105, N-[(3R,4S and 3S,4R)-4-fluoropyrrolidin-3-yl]-5,7-dimethyl-4-(2-methylpyrazol-3-yl)-6-(4-pyridyl)quinoline-2-carboxamide]	3 (≈ 1.33 µg/mL)

Same assay, conditions: Table 4, C6 SAR; Middlebrook 7H9, 37° C. six days, resazurin fluorescence after 48 hours; read-out: MIC90

SMILES	MIC90 [µM]
Cc1cc2nccc(-c3ccccc3)c2c(C)c1-c1ccc(CN2CCOCC2)cc1 [Compound 47]	0.45 (≈ 0.184 µg/mL)
